US12492193B2, “Pyrazole derivatives for the treatment of cystic fibrosis” (Fondazione Istituto Italiano Di Tecnologia, priority 2017, dated 2025)

Tests used:
Assay type in all cases: cell-based
mutant CFTR = target: T1, mutant CFTR (Homo sapiens, UniProt P13569, DEL508-508); experiment: Fluorescence (HS-YFP) assay for CFTR activity, corrector assay; details: CFBE41o- and FRT cells with stable expression of mutant CFTR, 24 h compound treatment
T1 construct: expressed in transfected cells
Summary of the method: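 Corrector activity: 24 h compound treatment of HS-YFP/mutant-CFTR CFBE41o- or FRT cells, followed by 30 min forskolin 20 μM + genistein 50 μM at 37° C. Iodide influx (100 mM final) was tracked as fluorescence quenching, with dF/dt extrapolated by exponential fitting; EC50 values derived.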

F508del-CFTR [1] = target: T2, F508del-CFTR (Homo sapiens, UniProt P13569, DEL508-508); experiment: Short-circuit current recordings on human bronchial epithelial cells (F508del/F508del); design: Human bronchial epithelial (HBE) cells obtained from CF patients (F508del/F508del genotype); endogenous in cells; host or cells: primary human bronchial epithelial cells from CF patients, F508del/F508del; details: HBE cells from CF patients (F508del/F508del), 24 hrs treatment; table 3
Experimental: Short-Circuit Current Recordings on Human Bronchial Epithelial Cells
Human bronchial epithelial (HBE) cells obtained from CF patients (F508del/F508del genotype) were plated on Snapwell inserts (Code 3801, Corning Life Sciences) at a density of 500,000 cells per insert. Cells were cultured for two weeks in a differentiating medium whose compositions has been previously described (Scudieri et al., J Physiol 590:6141-6155, 2012). For the first week, the medium was kept on both apical and basolateral sides of inserts (submerged condition). For the second week, the apical medium was removed (air-liquid condition, ALC). To test the activity of correctors, cells were treated for 24 hrs with compounds dissolved in the basolateral medium. After treatment, Snapwell inserts carrying differentiated bronchial epithelia were mounted in a vertical chamber resembling an Ussing system with internal fluid circulation. Both apical and basolateral hemichambers were filled with 5 mL of a Krebs bicarbonate solution containing (in mM): 126 NaCl, 0.38 KH2PO4, 2.13 K2HPO4, 1 MgSO4, 1 CaCl2), 24 NaHCO3, and 10 glucose. Both sides were continuously bubbled with a gas mixture containing 5% CO2-95% air and the temperature of the solution was kept at 37° C. The transepithelial voltage was short-circuited with a voltage-clamp (DVC-1000, World Precision Instruments) connected to the apical and basolateral chambers via Ag/AgCl electrodes and agar bridges (1 M KCl in 1% agar). The offset between voltage electrodes and the fluid resistance were canceled before experiments. The short-circuit current was recorded with a PowerLab 4/25 (ADInstruments) analogical to digital converter connected to a Macintosh computer. […] The difference between the current measured with CPT-cAMP plus potentiator and the current remaining after CFTRinh-172 treatment (ΔICFTR) was taken as the parameter reflecting F508del-CFTR expression in the apical membrane.
Activities of selected compounds on HBE cells (expressed as ΔICFTR) are illustrated in table 3 wherein +: ΔICFTR<2.0 μA; ++: 2.0 μA<ΔICFTR<3.0 μA; +++: ΔICFTR>3.0 μA.

F508del-CFTR [2] = target: T2, F508del-CFTR; experiment: Transepithelial electrical conductance (TEEC) in FRT cells expressing F508del-CFTR; design: expressed in transfected cells; host or cells: FRT cells; details: compounds tested at 5.0 μM, 24 hrs, table 2
Experimental: Transepithelial Electrical Conductance (TEEC)
FRT cells expressing F508del-CFTR were plated on HTS Transwell-24 well permeable supports (Code 3379, Corning Life Sciences) at a density of 200,000 cells/well. After six days, cells were incubated for 24 hrs with test correctors, vehicle, or VX-809. Compounds were dissolved in both basolateral (800 μL) and apical (300 μL) culture medium. After treatment, the culture medium was removed and replaced on both sides with a saline solution containing (in mM): 130 NaCl, 2.7 KCl, 1.5 KH2PO4, 1 CaCl2), 0.5 MgCl2, 10 glucose, 10 Na-Hepes (pH 7.4). The basolateral and apical side received 800 μL and […], respectively. The 24-well tray with cells was placed on a block heater (SBH 130D, Stuart) to keep the temperature at 37° C. during the entire experiment. After 10 min, the basal transepithelial electrical resistance (TEER) across each layer of FRT cells was measured with a STX100C electrode pair connected to an EVOM2 voltohmeter (World Precision Instruments). To stimulate F508del-CFTR, each well received (apical side) 50 μL of saline solution containing 60 μM forskolin and 150 μM genistein (final concentrations: 20 μM forskolin, 50 μM genistein). Forskolin was also pipetted in the basolateral medium to obtain the 20 μM concentration. After 10 min TEER was measured again in each well. To block F508del-CFTR function, the inhibitor PPQ-102 was used at the final concentration of 30 μM. To achieve the desired concentration, 75 μL of the apical solution in each well was replaced with an equal volume of saline solution containing 20 μM forskolin, 50 μM genistein, and 60 μM PPQ-102. After further 10 min, the transepithelial electrical resistance was measured. All values of TEER were converted to transepithelial electrical conductance (TEEC) using the formula TEEC=1/TEER. The parameter to indicate activity of F508del-CFTR in each well (ATEEC) was calculated from the difference in TEEC measured after maximal stimulation of F508del-CFTR with forskolin and genistein and after block with PPQ-102.
Corrector activities obtained on selected compounds tested at 5.0 μM (expressed as ΔTEEC values) are illustrated in table 2, wherein +: ΔTEEC<2000 μS; ++: 2000 μS<ΔTEEC<3000 μS; […]: ΔTEEC>3000 μS.

T1 sequence (P13569 with tags, fused parts or gaps DEL508-508): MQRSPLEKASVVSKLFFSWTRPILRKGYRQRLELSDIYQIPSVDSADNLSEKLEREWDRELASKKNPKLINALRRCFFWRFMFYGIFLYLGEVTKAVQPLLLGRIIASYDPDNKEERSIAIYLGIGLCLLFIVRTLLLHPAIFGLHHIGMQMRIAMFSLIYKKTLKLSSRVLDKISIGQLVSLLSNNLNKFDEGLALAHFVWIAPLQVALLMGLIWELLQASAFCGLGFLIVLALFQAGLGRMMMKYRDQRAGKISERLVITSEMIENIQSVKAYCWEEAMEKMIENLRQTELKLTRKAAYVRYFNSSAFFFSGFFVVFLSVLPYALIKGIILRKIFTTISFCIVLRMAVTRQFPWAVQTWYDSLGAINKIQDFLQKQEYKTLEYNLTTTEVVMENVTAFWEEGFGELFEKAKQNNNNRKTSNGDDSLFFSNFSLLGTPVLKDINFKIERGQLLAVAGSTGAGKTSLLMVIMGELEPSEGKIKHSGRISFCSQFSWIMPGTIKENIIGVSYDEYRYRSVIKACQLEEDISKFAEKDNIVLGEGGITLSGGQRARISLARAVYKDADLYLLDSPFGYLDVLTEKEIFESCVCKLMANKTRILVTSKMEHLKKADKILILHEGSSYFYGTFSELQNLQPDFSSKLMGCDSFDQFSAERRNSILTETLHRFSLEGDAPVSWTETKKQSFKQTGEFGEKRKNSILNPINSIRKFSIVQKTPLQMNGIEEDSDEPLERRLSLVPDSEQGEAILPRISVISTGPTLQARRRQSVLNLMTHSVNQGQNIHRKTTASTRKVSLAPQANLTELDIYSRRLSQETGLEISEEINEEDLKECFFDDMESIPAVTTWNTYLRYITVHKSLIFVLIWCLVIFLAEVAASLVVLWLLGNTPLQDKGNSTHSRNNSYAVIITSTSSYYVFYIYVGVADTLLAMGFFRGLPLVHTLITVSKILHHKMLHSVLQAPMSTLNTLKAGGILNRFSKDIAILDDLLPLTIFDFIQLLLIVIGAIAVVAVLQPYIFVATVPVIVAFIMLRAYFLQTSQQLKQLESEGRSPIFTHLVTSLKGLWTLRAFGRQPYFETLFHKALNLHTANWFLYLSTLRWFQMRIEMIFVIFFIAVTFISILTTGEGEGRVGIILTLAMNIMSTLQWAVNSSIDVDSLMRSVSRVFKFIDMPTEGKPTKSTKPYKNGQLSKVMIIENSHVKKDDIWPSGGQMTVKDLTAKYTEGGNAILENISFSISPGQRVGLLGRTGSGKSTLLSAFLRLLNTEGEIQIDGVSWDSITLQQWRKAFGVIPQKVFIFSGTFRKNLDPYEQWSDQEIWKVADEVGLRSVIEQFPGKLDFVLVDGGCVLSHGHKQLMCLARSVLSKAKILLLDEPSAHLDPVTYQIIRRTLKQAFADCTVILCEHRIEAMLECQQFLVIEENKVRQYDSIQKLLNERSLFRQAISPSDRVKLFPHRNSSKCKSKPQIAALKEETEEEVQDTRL
T2 sequence (P13569 with tags, fused parts or gaps DEL508-508): as above

Structure (SMILES) | EC50 (mutant CFTR) | activity on HBE cells (ΔICFTR) (F508del-CFTR [1]) | Corrector activity (ΔTEEC) (F508del-CFTR [2])
Cc1nn(-c2cccc(C(=O)N(C)c3ccc4c(c3)OC(F)(F)O4)c2)c(C)c1Cl [compound 009, 3-(4-Chloro-3,5-dimethyl-pyrazol-1-yl)-N-(2,2-difluoro-1,3-benzodioxol-5-yl)-N-methyl-benzamide] | 1 to 2 µM | ++ (2.0 μA<ΔICFTR<3.0 μA) | + (ΔTEEC<2000 μS)
CCOC(=O)c1c(Cl)c(C)nn1-c1cccc(C(=O)N(C)c2ccc3c(c2)OCO3)c1 [compound 075, Ethyl 2-[3-[1,3-benzodioxol-5-yl(methyl)carbamoyl]phenyl]-4-chloro-5-methyl-pyrazole-3-carboxylate] | < 1 µM | + (ΔICFTR<2.0 μA) | + (ΔTEEC<2000 μS)
Cc1nc2cc(Cl)c(N(C)C(=O)c3cccc(-n4nc(C)c(Cl)c4C)c3)cc2o1 [compound 080, 3-(4-Chloro-3,5-dimethyl-pyrazol-1-yl)-N-(5-chloro-2-methyl-1,3-benzoxazol-6-yl)-N-methyl-benzamide] | < 1 µM | ++ (2.0 μA<ΔICFTR<3.0 μA) | ++ (2000 μS<ΔTEEC<3000 μS)
Cc1nn(-c2cccc(C(=O)N(C)c3ccc4c(c3)OCO4)c2)c(C(=O)OC(C)(C)C)c1Cl [compound 089, Tert-butyl 2-[3-[1,3-benzodioxol-5-yl(methyl)carbamoyl]phenyl]-4-chloro-5-methyl-pyrazole-3-carboxylate] | < 1 µM | +++ (ΔICFTR>3.0 μA) | + (ΔTEEC<2000 μS)
Cc1c(Cl)c(C(F)(F)F)nn1-c1cccc(C(=O)N(C)c2ccc3c(c2)OCO3)c1 [compound 090, N-(1,3-Benzodioxol-5-yl)-3-[4-chloro-5-methyl-3-(trifluoromethyl)pyrazol-1-yl]-N-methyl-benzamide] | < 1 µM | +++ (ΔICFTR>3.0 μA) | ++ (2000 μS<ΔTEEC<3000 μS)
Cc1c(Br)c(C(F)(F)F)nn1-c1cccc(C(=O)N(C)c2ccc3c(c2)OCO3)c1 [compound 098, N-(1,3-Benzodioxol-5-yl)-3-[4-bromo-5-methyl-3-(trifluoromethyl)pyrazol-1-yl]-N-methyl-benzamide] | < 1 µM | +++ (ΔICFTR>3.0 μA) | ++ (2000 μS<ΔTEEC<3000 μS)
Cc1nn(-c2cccc(C(=O)N(C)c3ccc4c(c3)OCO4)c2)c(C)c1C(F)(F)F [compound 099, N-(1,3-Benzodioxol-5-yl)-3-[3,5-dimethyl-4-(trifluoromethyl)pyrazol-1-yl]-N-methyl-benzamide] | < 1 µM | ++ (2.0 μA<ΔICFTR<3.0 μA) | ++ (2000 μS<ΔTEEC<3000 μS)
CC(C)Cc1cc(C(F)(F)F)nn1-c1cccc(C(=O)N(C)c2ccc3c(c2)OCO3)c1 [compound 100, N-(1,3-Benzodioxol-5-yl)-3-[5-isobutyl-3-(trifluoromethyl)pyrazol-1-yl]-N-methyl-benzamide] | < 1 µM | + (ΔICFTR<2.0 μA) | + (ΔTEEC<2000 μS)
Cc1nc2ccc(N(C)C(=O)c3cccc(-n4nc(C(F)(F)F)c(Cl)c4C)c3)cc2o1 [compound 108, 3-[4-Chloro-5-methyl-3-(trifluoromethyl)pyrazol-1-yl]-N-methyl-N-(2-methyl-1,3-benzoxazol-6-yl)benzamide] | < 1 µM | + (ΔICFTR<2.0 μA) | ++ (2000 μS<ΔTEEC<3000 μS)
CN(C(=O)c1cccc(-n2nc(C(F)(F)F)cc2-c2ccccc2)c1)c1ccc2c(c1)OCO2 [compound 125, N-(1,3-Benzodioxol-5-yl)-N-methyl-3-[5-phenyl-3-(trifluoromethyl)pyrazol-1-yl]benzamide] | < 1 µM | + (ΔICFTR<2.0 μA) | + (ΔTEEC<2000 μS)
CCOC(=O)c1ccc(OCc2c(Cl)c(C)nn2-c2cccc(C(=O)N(C)c3ccc4c(c3)OCO4)c2)cc1 [compound 141, Ethyl 4-[[2-[3-[1,3-benzodioxol-5-yl(methyl)carbamoyl]phenyl]-4-chloro-5-methyl-pyrazol-3-yl]methoxy]benzoate] | < 1 µM | +++ (ΔICFTR>3.0 μA) | ++ (2000 μS<ΔTEEC<3000 μS)
